Measurements: publication PMC11054487, “Species-Specific Unbound Fraction Differences in Highly Bound PFAS: A Comparative Study across Human, Rat, and Mouse Plasma and Albumin” (Toxics, 2024)

Experiments:
rat (Wistar-Han) plasma = test: Presaturation equilibrium dialysis, fraction unbound in rat plasma; format: in vitro ADME; conditions: 5 μM PFAS, 18 h, 37 °C, value (CV)
Description: (§1) Each PFAS:matrix combination was assessed in quadruplicate.
(§2) The injection volume for each sample was 5 µL.

rat serum albumin (RSA) = rat serum albumin (RSA) (Rattus norvegicus, UniProt P02770); test: Presaturation equilibrium dialysis, fraction unbound in rat serum albumin solution; conditions: for fraction unbound at 18 h, 5 µM: rat
rat serum albumin (RSA), sequence (P02770 25-608): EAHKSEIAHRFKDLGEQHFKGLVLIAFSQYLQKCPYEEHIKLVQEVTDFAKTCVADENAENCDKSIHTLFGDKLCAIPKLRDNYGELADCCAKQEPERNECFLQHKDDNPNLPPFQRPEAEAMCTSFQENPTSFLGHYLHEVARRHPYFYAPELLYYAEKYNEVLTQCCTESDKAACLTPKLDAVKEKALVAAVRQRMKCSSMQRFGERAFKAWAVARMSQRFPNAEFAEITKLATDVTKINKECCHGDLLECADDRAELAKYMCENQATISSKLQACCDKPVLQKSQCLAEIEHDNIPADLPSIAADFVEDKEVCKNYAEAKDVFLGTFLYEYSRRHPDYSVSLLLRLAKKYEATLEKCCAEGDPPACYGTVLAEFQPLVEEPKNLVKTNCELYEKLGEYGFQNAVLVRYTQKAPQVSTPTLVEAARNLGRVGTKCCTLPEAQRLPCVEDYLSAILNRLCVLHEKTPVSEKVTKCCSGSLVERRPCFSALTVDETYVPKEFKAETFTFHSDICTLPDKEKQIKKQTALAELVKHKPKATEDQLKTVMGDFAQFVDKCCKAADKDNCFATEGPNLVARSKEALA
Description: (§3) The equilibrium dialysis device (EQD) HTD96 (Gales Ferry, CT, USA) was assembled according to manufacturer instructions. DPBS buffer solutions were prepared by adding PFAS with a concentration of either approximately five-fold of the estimated fu values based on initial available data or assumed to be 0.001 if no data was available. The dialysis apparatus and membranes assembled were pre-saturated (250 µL) three times in total with PFAS spiked DPBS buffer solution; twice for 1 h followed by a final 18-h pre-saturation. This same solution was used on the receiver side of the EQD. […] This 4% albumin was used in the albumin binding study to recapitulate plasma concentration, as human albumin concentration in plasma is 3.5–4.5 g/dL (530–680 µM). The matrix was diluted five-fold using DPBS for PFAS that had preliminary fu values lower than 0.01. Dimethylsulfoxide (DMSO) stock solutions of test PFAS were prepared at 500 μM and added to species-specific plasma or 4% albumin to a final concentration of 5 μM with 1% DMSO. Next, 150 μL of PFAS spiked DPBS was added to the receiver side of the membrane and 150 μL of compound spiked matrix was added to the donor side. […] Each PFAS:matrix combination was assessed in quadruplicate. For sample collection, 15 μL of buffer and 45 μL of matrix were sampled from the dialysis device into a 96-deep well plate and matrix-matched with either blank buffer or matrix. The samples were then quenched with 200 μL of cold acetonitrile containing internal standard (tolbutamide 30 nM and carbamazepine 12 nM) to precipitate proteins. Next, the plates were sealed and placed on a vortex mixer for 1 min, and then centrifuged (Beckman Coulter, Fullerton, CA, USA) at 3000 rpm for 5 min at room temperature. Lastly, the supernatant was transferred to a new 96-well plate, fully dried down under nitrogen gas, reconstituted with 200 µL of 50/50 (v/v) HPLC grade water/acetonitrile, and vortexed for 1 min prior to LC-MS/MS analysis.
(§4) LC-MS/MS analyses were performed on a SCIEX Triple Quad 5500 mass spectrometer (SCIEX, Concord, ON, Canada) equipped with Turbo Ion Spray interface. […] All instruments were controlled and synchronized by SCIEX Analyst software (version 1.6.3). Mobile phases compositions were 0.1% formic acid in water (mobile phase A) and 0.1% formic acid in acetonitrile (mobile phase B). […] The column was equilibrated at 5% B for 0.5 min before injecting samples. The total run time for each injection was 6 min. The chromatographic separation was conducted on a Phenomenex Kinetex C18 100Å 30 × 2.1 mm column (Torrance, CA, USA) with a flow rate of 0.5 mL/min. The injection volume for each sample was 5 µL. Multiple-reaction-monitoring (MRM) mode using specific precursor/product ion transitions was used for quantification. Data processing was performed using SCIEX Analyst software (version 1.6.3).
(§5) The calculations for fu are shown in Equations (1) and (2), where D is the dilution factor and fu,d is the diluted fu shown below. All calculations are based on area ratios (analyte peak area/IS peak area), and MS responses used for calculations were all in linear ranges. […] (1) Diluted fud=Receiver Area Ratio/Donor Area Ratio (2) Undiluted fu=1/D/1/fu,d−1+1/D
(§6) Albumin concentrations for rodents have been reported in the literature as rat: 3.0 g/dL; CD-1 mice: 2.7 g/dL; C57BL/6 mice: 2.9 g/dL [53].

[1] = target: mouse serum albumin (MSA) (Mus musculus, UniProt P07724); test: Presaturation equilibrium dialysis, fraction unbound in mouse serum albumin solution; conditions: for fraction unbound at 18 h, 5 µM: mouse
mouse serum albumin (MSA), sequence (P07724 25-608): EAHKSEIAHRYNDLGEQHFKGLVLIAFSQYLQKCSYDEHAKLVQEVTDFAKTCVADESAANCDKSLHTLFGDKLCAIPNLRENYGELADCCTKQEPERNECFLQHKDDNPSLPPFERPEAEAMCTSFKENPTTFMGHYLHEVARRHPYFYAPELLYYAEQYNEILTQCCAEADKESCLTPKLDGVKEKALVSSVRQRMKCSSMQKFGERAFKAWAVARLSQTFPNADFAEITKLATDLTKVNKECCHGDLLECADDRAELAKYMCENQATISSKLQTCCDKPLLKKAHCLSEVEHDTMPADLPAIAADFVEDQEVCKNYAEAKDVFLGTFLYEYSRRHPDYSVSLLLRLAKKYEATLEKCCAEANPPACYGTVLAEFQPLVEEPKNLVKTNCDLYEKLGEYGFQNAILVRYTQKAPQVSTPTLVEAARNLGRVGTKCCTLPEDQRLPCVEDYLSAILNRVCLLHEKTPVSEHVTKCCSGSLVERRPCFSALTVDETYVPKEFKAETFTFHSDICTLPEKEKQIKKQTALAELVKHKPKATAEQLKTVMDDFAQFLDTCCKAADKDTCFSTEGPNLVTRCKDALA
Description: as §3, §4, §5, §6

[2] = humans; cited from earlier work
mouse (C57BL/6) plasma = test: Presaturation equilibrium dialysis, fraction unbound in C57BL/6 mouse plasma; format: in vitro ADME; conditions: 5 μM PFAS, 18 h, 37 °C, value (CV)
Description: as §1, §2

[3] = target: T1, human serum albumin (HSA) (Homo sapiens, UniProt P02768); test: Presaturation equilibrium dialysis, fraction unbound in human serum albumin solution; format: in vitro ADME; conditions: 4% human serum albumin in PBS, 5 μM PFAS, value (CV)
T1 construct: purchased Sigma-Aldrich
T1 sequence (P02768 25-609): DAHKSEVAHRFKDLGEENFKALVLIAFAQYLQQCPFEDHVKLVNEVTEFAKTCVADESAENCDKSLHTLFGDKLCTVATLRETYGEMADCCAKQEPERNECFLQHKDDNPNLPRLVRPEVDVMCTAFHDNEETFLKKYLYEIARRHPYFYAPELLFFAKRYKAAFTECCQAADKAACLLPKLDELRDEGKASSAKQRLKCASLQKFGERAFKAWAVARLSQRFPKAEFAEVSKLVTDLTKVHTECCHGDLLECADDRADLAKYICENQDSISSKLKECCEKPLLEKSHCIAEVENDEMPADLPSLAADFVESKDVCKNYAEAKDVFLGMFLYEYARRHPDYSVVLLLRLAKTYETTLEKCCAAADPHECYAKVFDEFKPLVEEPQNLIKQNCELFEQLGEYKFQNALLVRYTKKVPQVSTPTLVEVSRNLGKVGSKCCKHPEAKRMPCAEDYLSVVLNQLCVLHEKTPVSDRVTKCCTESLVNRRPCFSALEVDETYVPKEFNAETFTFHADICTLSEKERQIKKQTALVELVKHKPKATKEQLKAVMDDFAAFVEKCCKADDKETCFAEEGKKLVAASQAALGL
Description: as §1, §2

human plasma = test: Presaturation equilibrium dialysis, fraction unbound in human plasma; format: in vitro ADME; conditions: 5 μM PFAS, 18 h, 37 °C, value (CV)
Description: as §1, §2

mouse (CD-1) plasma = test: Presaturation equilibrium dialysis, fraction unbound in CD-1 mouse plasma; format: in vitro ADME; conditions: 5 μM PFAS, 18 h, 37 °C, value (CV)
Description: as §1, §2

[4] = Presaturation equilibrium dialysis, fraction unbound in rat plasma; format: in vitro ADME; conditions: Wistar-Han rat plasma, 5 μM PFAS, 37 °C, value (CV), read-out: Fraction Unbound (fu) and Coefficient of Variance (CV), Rat Plasma
Description: as §1, §2

[5] = Presaturation equilibrium dialysis, fraction unbound in human plasma; format: in vitro ADME; conditions: human, 5 μM PFAS, 37 °C, value (CV), read-out: Fraction Unbound (fu) and Coefficient of Variance (CV), Human Plasma
Description: as §1, §2

[6] = Presaturation equilibrium dialysis, fraction unbound in C57BL/6 mouse plasma; format: in vitro ADME; conditions: 5 μM PFAS, 37 °C, value (CV), read-out: Fraction Unbound (fu) and Coefficient of Variance (CV), C57BL/6 Plasma
Description: as §1, §2

[7] = Presaturation equilibrium dialysis, fraction unbound in CD-1 mouse plasma; format: in vitro ADME; conditions: 5 μM PFAS, 37 °C, value (CV), read-out: Fraction Unbound (fu) and Coefficient of Variance (CV), CD-1 Plasma
Description: as §1, §2

[8] = 3% rat serum albumin, value (%CV)
[9] = 4% rat serum albumin in PBS, 5 μM PFAS, value (CV)
[10] = 3% mouse serum albumin, value (%CV)
[11] = 4% mouse serum albumin in PBS, 5 μM PFAS, value (CV)

| Structure (SMILES) | Fraction Unbound (fu) and Coefficient of Variance (CV), Rat Plasma (rat (Wistar-Han) plasma) | Fraction unbound (fu) and %CV, RSA 3% (rat serum albumin (RSA); [8]) | Fraction Unbound (fu) and Coefficient of Variance (CV), RSA (rat serum albumin (RSA); [9]) | Fraction unbound (fu) and %CV, MSA 3% [1, 10] | Fraction Unbound (fu) and Coefficient of Variance (CV), MSA [1, 11] | t1/2 [2] | Fraction Unbound (fu) and Coefficient of Variance (CV), C57BL/6 Plasma (mouse (C57BL/6) plasma) | Fraction Unbound (fu) and Coefficient of Variance (CV), HSA [3] | Fraction Unbound (fu) and Coefficient of Variance (CV), Human Plasma (human plasma) | Fraction Unbound (fu) and Coefficient of Variance (CV), CD-1 Plasma (mouse (CD-1) plasma) | fraction unbound at 18 h, 5 µM [4] | fraction unbound at 18 h, 5 µM (rat serum albumin (RSA); 4% rat serum albumin (RSA) solution, Fraction Unbound (fu) and Coefficient of Variance (CV), RSA, 4% rat serum albumin in PBS, 5 μM PFAS, value (CV)) | fraction unbound at 18 h, 5 µM (rat serum albumin (RSA); isolated protein, Fraction unbound (fu) and %CV, RSA 3%, 3% rat serum albumin, value (%CV)) | fraction unbound at 18 h, 5 µM [5] | fraction unbound at 18 h, 5 µM ([1]; 4% mouse serum albumin (MSA) solution, Fraction Unbound (fu) and Coefficient of Variance (CV), MSA, 4% mouse serum albumin in PBS, 5 μM PFAS, value (CV)) | fraction unbound at 18 h, 5 µM ([1]; isolated protein, Fraction unbound (fu) and %CV, MSA 3%, 3% mouse serum albumin, value (%CV)) | fraction unbound at 18 h, 5 µM [6] | fraction unbound at 18 h, 5 µM [7] | fraction unbound at 18 h, 5 µM ([3]; 4% human serum albumin (HSA) solution, read-out: Fraction Unbound (fu) and Coefficient of Variance (CV), HSA) |
| --- | --- | --- | --- | --- | --- | --- | --- | --- | --- | --- | --- | --- | --- | --- | --- | --- | --- | --- | --- |
| O=S(=O)(O)C(F)(F)C(F)(F)C(F)(F)C(F)(F)C(F)(F)C(F)(F)C(F)(F)C(F)(F)F [PFOS, perfluorooctanesulfonic acid] | 0.00109(4%) | 0.000697 (25%) | 0.000852(25%) | 0.00102 (19%) | 0.00126(19%) | 3.3–5.4 years | 0.00256(8%) | 0.000524(13%) | – | – | – | – | – | – | – | – | – | – | – |
| O=C(O)C(F)(F)C(F)(F)C(F)(F)C(F)(F)F [PFPA, perfluoropentanoic acid] | 0.18(2%) | 0.0769 (4%) | 0.0942(4%) | 0.0809 (11%) | 0.0987(11%) | – | 0.577(5%) | 0.0933(6%) | 0.0888(3%) | 0.609(4%) | – | – | – | – | – | – | – | – | – |
| O=C(O)C(F)(F)C(F)(F)C(F)(F)C(F)(F)C(F)(F)C(F)(F)C(F)(F)C(F)(F)C(F)(F)C(F)(F)C(F)(F)F [PFDoDA, perfluorododecanoic acid] | – | – | – | – | – | – | – | – | – | – | 7.96e-05 | 9.64e-05 | 7.77e-05 | 0.000105 | 0.000217 | 0.000175 | 0.000205 | 0.000222 | 0.000157 |
| O=C(O)C(F)(F)C(F)(F)C(F)(F)C(F)(F)C(F)(F)F [PFHxA, perfluorohexanoic acid] | 0.0358(7%) | 0.0212 (4%) | 0.0264(4%) | 0.0266 (11%) | 0.0329(11%) | – | 0.182(7%) | 0.0336(7%) | 0.038(6%) | 0.169(5%) | – | – | – | – | – | – | – | – | – |
